According to article PMC4728608, “A Cell-Penetrating Peptide with a Guanidinylethyl Amine Structure Directed to Gene Delivery” (Scientific Reports, 2016):
Read-outs that look alike come from different tables or passages of the source.

Columns and labels:
[1] = cited from earlier work
Source text: The unnatural amino acid described herein was a lysine (Lys) derivative with a guanidinylethyl (GEt) group in the side chain amine [Lys(GEt)] (Fig. 1).

[2] = Potentiometric titration of model compounds; details: for protonation degree α at pH 5.5 / protonation degree α at pH 7.4: 100 mM amine and/or guanidine in 100 mM HCl titrated with 100 mM NaOH
Protocol: 1-Ethylamino-2-guanidinylethane hydrochloride, a model compound for Lys(GEt), was synthesized according to Supplementary Scheme S3 in order to clarify the protonation degree of the GEt amine structure within a range from pH 3 to pH 13. […] The monoprotonate state was a major form of the AEt amine structure at neutral pH. […] The GEt amine structure took the diprotonated form even at neutral pH, as expected.
N-Ethylethylenediamine hydrochloride (80.5 mg, 0.5 mmol) and 1-ethylamino-2-guanidinylethane hydrochloride (101.5 mg, 0.5 mmol) were separately dissolved in 100 mM HCl (10 mL) to obtain a solution with 100 mM amine and/or guanidine, and then titrated with 100 mM NaOH at 20 °C. Potentiometric titration was performed with a pH meter D-52 (Horiba, Kyoto, Japan). In this experiment, the titrant was added in quantities of 100 μL after the pH values were stabilized.

[3] = potentiometric titration, 20 °C
[4] = potentiometric titration, 100 mM in 100 mM HCl titrated with 100 mM NaOH, 20 °C

NCCCC[C@H](N)C(=O)O [Lys, lysine]
pKa of protonated side chain (guanidine of Arg, primary amine of Lys) [1]: 10.2

CCNCCN.Cl [N-Ethylethylenediamine hydrochloride]
protonation degree α at pH 5.5 [2, 3]: 0.97 | protonation degree α at pH 7.4 [2, 3]: 0.66 | pKa1 [2, 4]: 7.1 | pKa2 [2, 4]: 10.3

NCCNCCN [diethylenetriamine]
pKa of protonated secondary amine [1]: 3.9

CCNCCNC(=N)N.Cl [model compound for Lys(GEt), 1-Ethylamino-2-guanidinylethane hydrochloride]
pKa1 [2]: 8.8 | pKa2 [2]: 12.0 | protonation degree α at pH 5.5 [2, 3]: 0.99 | protonation degree α at pH 7.4 [2, 3]: 0.96
